Source: paper PMC10455244, “Alpha-Mangostin: A Potent Inhibitor of TRPV3 and Pro-Inflammatory Cytokine Secretion in Keratinocytes” (International Journal of Molecular Sciences, 2023)

Legend:
TRPV3 = settings: read-out: IC50 (µM), channel inhibited TRPV3; cited from earlier work
TRPV1 = settings: read-out: IC50 (µM), channel inhibited TRPV1; cited from earlier work
TRPV2 = test system: TRPV2; set-up: method as in PMID 28333079; settings: read-out: IC50 (µM), channel inhibited TRPV2; cited from earlier work
TRPA1 = molecular target: T1, TRPA1 (Homo sapiens, UniProt O75762); settings: read-out: IC50 (µM), channel inhibited TRPA1; cited from earlier work
T1 construct: host or cells: HEK 293T (transient transfection)

TRPV3 (WT) = experiment: in vitro; assay type: cell-based, human; settings: human
IL-8 = experiment: ELISA, carvacrol-induced IL-8 release in NHEK; assay type: cell-based, human; settings: 300 µM carvacrol alone, 24 h
Source text: (§1) Constitutive activation of TRPV3 due to continuous stimulation or the presence of Olmsted mutations causes noticeable skin inflammation due to the increased secretion of pro-inflammatory cytokines from the keratinocytes. Besides, in atopic dermatitis (AD), cytokine release from keratinocytes contributes to the inflammatory environment, which drives many characteristic AD symptoms. Therefore, we determined the effect of TRPV3 activation on cytokine release instead of TRPV3 expression and evaluated whether alpha-mangostin suppressed TRPV3-mediated cytokine secretion in normal human keratinocytes. The levels of secreted cytokines (interleukin (IL)-6, IL-8, and tumor necrosis factor-alpha (TNF-α)) were measured using enzyme-linked Immunosorbent assay (ELISA) kits due to their high sensitivity and quantitation ability. The cells were induced with 300 µM carvacrol, with or without 1 µM alpha-mangostin, and 10 µM 74a.
(§2) Figure 5 Alpha-mangostin (α-MG) inhibited carvacrol-induced cytokine release in NHEK cells and rescued carvacrol-induced cell death. (A) Alpha-mangostin inhibited the carvacrol-induced release of IL-8 and IL-6 in NHEK. Cells were induced by 300 µM carvacrol with or without either 1 µM alpha-mangostin or 10 µM 74a for 24 h before the ELISA assay. (B) Alpha-mangostin reduced cell death caused by carvacrol in human keratinocytes. […]

IL-6 = experiment: ELISA, carvacrol-induced IL-6 release in NHEK; assay type: cell-based, human; settings: 300 µM carvacrol alone, 24 h, not significant
Source text: as §1, §2

TNF-α = experiment: ELISA, TNF-α release in NHEK; assay type: cell-based, human; settings: 300 µM carvacrol alone, 24 h
Source text: as §1, §2

T1 sequence (O75762 whole entry, species assumed): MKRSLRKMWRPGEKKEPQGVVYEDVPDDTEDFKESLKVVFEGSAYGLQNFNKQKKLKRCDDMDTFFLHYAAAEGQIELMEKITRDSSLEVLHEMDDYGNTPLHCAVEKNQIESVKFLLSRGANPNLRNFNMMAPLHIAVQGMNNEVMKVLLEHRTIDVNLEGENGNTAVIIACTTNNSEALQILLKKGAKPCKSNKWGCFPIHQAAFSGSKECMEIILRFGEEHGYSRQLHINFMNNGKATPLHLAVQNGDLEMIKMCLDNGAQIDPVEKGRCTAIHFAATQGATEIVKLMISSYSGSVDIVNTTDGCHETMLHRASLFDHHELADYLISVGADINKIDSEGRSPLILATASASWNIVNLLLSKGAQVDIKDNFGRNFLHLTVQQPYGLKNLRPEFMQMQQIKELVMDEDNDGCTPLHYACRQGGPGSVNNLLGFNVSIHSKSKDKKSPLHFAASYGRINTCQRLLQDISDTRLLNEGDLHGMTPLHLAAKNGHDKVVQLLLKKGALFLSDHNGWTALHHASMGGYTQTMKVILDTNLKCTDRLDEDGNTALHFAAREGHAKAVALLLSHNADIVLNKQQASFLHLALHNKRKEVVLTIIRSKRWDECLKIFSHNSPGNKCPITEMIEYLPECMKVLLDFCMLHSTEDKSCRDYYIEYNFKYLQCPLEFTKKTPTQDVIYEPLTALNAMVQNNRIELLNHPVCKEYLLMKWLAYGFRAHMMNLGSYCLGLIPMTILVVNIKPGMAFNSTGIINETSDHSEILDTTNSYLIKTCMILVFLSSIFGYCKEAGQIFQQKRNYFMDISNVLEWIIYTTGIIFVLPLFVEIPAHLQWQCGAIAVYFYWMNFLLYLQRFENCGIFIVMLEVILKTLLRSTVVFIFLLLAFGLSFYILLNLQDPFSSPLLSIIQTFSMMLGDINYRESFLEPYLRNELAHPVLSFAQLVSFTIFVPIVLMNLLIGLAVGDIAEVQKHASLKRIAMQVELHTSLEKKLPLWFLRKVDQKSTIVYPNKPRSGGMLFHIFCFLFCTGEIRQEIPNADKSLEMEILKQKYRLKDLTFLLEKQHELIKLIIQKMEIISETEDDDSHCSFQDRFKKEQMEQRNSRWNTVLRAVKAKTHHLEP

O=C(C=Cc1ccc(O)c(O)c1)OC1CC(O)(C(=O)O)CC(O)C1OC(=O)C=Cc1ccc(O)c(O)c1 (stereo not shown) [Isochlorogenic acid B]
IC50 (TRPV3): 0.9 ± 0.3 µM

O=C(/C=C/c1ccc(O)c(O)c1)O[C@@H]1CC(O)(C(=O)O)C[C@@H](OC(=O)/C=C/c2ccc(O)c(O)c2)C1O (stereo partly shown) [Isochlorogenic acid A]
IC50 (TRPV3): 2.7 ± 1.3 µM

Forsythoside B
IC50 (TRPV3): 6.7 ± 0.7 µM

CCC=CC1CCC2(CC3CCC4C(C(=O)OCCCCCCCCCCCCCCCC(=O)N(CCCN)CCCCN)C5(CCCC(C)O5)NC(=[N+]34)N2)O1 (stereo not shown) [Monanchomycalin B]
IC50 (TRPV1): 6.02 ± 0.36 µM | IC50 (TRPV3): 3.25 ± 0.6 µM | IC50 (TRPV2): 2.84 ± 1.01 µM

C[C@@H]1O[C@@H](O[C@@H]2[C@@H](O)[C@H](OCCc3ccc(O)c(O)c3)O[C@H](CO)[C@H]2OC(=O)/C=C/c2ccc(O)c(O)c2)[C@H](O)[C@H](O)[C@H]1O [Verbascoside]
IC50 (TRPV3): 14.1 ± 3.3 µM

Pulchranin A
IC50 (TRPV1): 27.5 ± 1.4 µM | IC50 (TRPV3): 71.8 ± 9.4 µM | IC50 (TRPA1): 174 ± 7.4 µM

Cc1ccc(C(C)C)cc1O [carvacrol, reference compound]
viability at 24 h, 300 µM (TRPV3 (WT)): 75.6% | Effect on IL-8 release (IL-8): significantly stimulated | Effect on IL-6 secretion (IL-6): slight increase | Effect on TNF-α levels (TNF-α): non-significant effect

COc1c(O)cc(O)c2c(=O)c3cccc(O)c3n(C)c12 [Citrusinine II]
IC50 (TRPV3): 12.4 ± 1.86 µM

Pulchranin C
IC50 (TRPV1): 183 ± 27 µM | IC50 (TRPV3): > 200 µM | IC50 (TRPA1): > 200 µM

COc1ccc2ccc(=O)oc2c1CC=C(C)C [Coumarin osthole]
IC50 (TRPV3): 37 ± 1.9 µM
